Assay results taken from article PMC7349657, “Efficient Targeted Degradation via Reversible and Irreversible Covalent PROTACs” (Journal of the American Chemical Society, 2020).

Experiments:
Ramos cells = assay: Metabolomic quantification of PROTAC cellular concentration; format: in vitro ADME, human; conditions: 2 hours; for Effective cellular concentration: 100 nM compound; for effective cellular concentration relative to IR-2 / effective cellular concentration relative to RC-2: 100 nM
Method: Raw data were analyzed using the MaxQuant software suite 1.6.0.16
(www.maxquant.org) with the Andromeda search engine2. The higher-energy collisional dissociation (HCD) MS/MS spe ctra were searched against an in silico tryptic digest of Homo sapiens proteins from the UniProt/Swiss-Prot sequence databas e (v. July 2019), including common contaminant proteins. All MS/MS spectra were searched with the following MaxQuant parameters: acetyl (protein N -terminus) and methionine oxidation as variable modifications; cysteine carbamidomethylation was set as fixed modification for all samples, exc ept for the SDT samples in which case carbamidomethylation was set as variable modification; max 2 missed cleavages; and precursors were initially matched to 4. 5 ppm tolerance and 20 ppm for fragment spectra. Peptide spectrum matches and proteins were automatically filtered to a 1% false discovery rate based on Andromeda score, pep tide length, and individual peptide mass errors. Processing was conducted without a match between runs.
Proteins were identified and quantified based on at least two unique peptides and based on the label -free quantification (LFQ) 3 values reported by Ma xQu ant. Every data set contained three sets of four replicates (one set for DMSO treated samples, one set for 50 nM and one set for 100 nM). Proteins were excluded from analysis if within all three sets, there were less than three samples with directly detect ed and quantified protein. After this filtering step, missing values were replaced from a normal distribution.
Sample preparation: 106 Ramos cells were treated in three replicates with 100 nM compound for 2 hours. Cells were then washed twice by centrifuge at 200 rcf, 4°C for 5 minutes, removing the supernatant and washed with ice cold PBS. Samples were then centrifuged at 200 rcf, 4°C for 5 minutes, then supernatant was removed and samples were frozen at -80°C. Samples were dispersed in 100 µl of PBS. From each sample, 20 µ l were mixed with 20 µl of 10% SDS in 50 mM ammonium bicarbonate, heated to 96 ° C for 5 minutes, and the protein concentration was measured by BCA ass ay. Another 75 µ l were mixed with 0.5 mL of 50% acetonitrile:water, sonicated 3 times 10 second s on ice, centrifuged for 10 minutes at 15000 rpm at 4°C, and the supernatant was transferred to a new tube and lyophilized.
The residue was dissolved in 25% acetonitrile in water in a volume calculated from the BCA assay to obtain a con centration equivalent to 1.09 µg / µl protein. The samples were centrifuged at 21,000 g for 5 min utes to remove insoluble material. Standard curves from 0.1-100 ng/mL for each compound were used for quantitation.
(§1) The LC–MS/MS instrument consi sted of an Acquit y I-class UPLC system (Waters) and Xevo TQ-XS triple quadrupole mass spectrometer (Waters) equipped with an electrospray ion source. Chromatographic separation was done on UPLC BEH C18 column (50mm × 2.1mm, 1.7-µm, Waters) using 50-100% gradient of 95%-aqueous acetonitrile with 0.1% formic acid in aqueous 0.1% formic acid during 2.5 minut e s, with a flow rate of 0. 3 mL min−1 and column temperature 30°C. Samples kept at 10°C were automatically injected in a volume of 3µl.
(§2) MS parameters (positive ion mode): capillary voltage - 2. 0kV, source temperature - […]
Targeting BTK in CLL cells
After signing an informed consent form approved by the Tel Aviv Medical Center IRB according to the Helsinki Accords, blood samples were collected from pat ients fulfilling the standard criteria for CLL. Peripheral blood mononuclear cells (PBMC) were isolated by Ficoll (Uppsala, Sweden) density-gradient centrifugation. Viable frozen cells were kept in FCS (Biological Industries, Beit-Haemek, Israel) containing 10% DMSO (Merck, Darmstadt, Germany) and stored in liquid nitrogen. Before use, frozen cells were thawed and cultured at 37°C, 5% CO 2, in RPMI medium supplemented with 10% FCS, penicillin, streptomycin, and L-glutamine (all from Biological Industries, Be it-Haemek, Israel.) […]

BTK [1] = biological target: T1, BTK (Homo sapiens, UniProt Q06187); assay: BTK degradation in patient-derived primary CLL cells (Western blot); format: cell-based; set-up: endogenous in cells; conditions: 18 h
T1 sequence (Q06187 whole entry): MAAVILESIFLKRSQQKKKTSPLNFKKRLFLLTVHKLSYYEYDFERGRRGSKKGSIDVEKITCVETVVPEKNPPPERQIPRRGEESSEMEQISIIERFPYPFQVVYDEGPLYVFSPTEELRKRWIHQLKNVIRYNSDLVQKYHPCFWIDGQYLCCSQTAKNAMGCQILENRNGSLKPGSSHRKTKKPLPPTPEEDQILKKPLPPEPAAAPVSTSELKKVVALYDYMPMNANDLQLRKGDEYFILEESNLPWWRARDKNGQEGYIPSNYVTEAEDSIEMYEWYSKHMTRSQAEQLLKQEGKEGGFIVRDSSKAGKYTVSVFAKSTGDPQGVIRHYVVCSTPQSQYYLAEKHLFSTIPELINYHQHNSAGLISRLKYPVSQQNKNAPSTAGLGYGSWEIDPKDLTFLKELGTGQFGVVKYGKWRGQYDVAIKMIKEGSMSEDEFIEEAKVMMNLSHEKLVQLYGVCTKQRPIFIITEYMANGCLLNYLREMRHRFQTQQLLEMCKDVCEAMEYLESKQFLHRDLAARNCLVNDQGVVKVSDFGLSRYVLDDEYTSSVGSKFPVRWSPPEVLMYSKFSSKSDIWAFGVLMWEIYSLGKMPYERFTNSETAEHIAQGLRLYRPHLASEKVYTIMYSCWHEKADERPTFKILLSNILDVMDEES
Method: To assess the PROTACs’ efficiency in a clinically relevant model, we tested their ability to induce BTK degradation in primary cells from chronic lymphocytic leukemia (CLL) patients.
Figure 4 Degradation of BTK in patient-derived CLL cells. Patient-derived primary CLL cells were treated with BTK PROTACs for 18 h, followed by measuring BTK levels via Western blot. M-IGHV/UM-IGHV: mutated/unmutated immunoglobulin heavy chain variable region (IGHV) gene.
as §1, §2
Targeting BTK in CLL cells […]
Following incubation with PROTACs as detailed, cells were collected and lysed in cell lysis buffer (Cell Signaling Technology, Beverly, MA) containing Phosphatase Inhibitor Cocktail 2 and protease inhibitor Cocktail (Sigma-Aldrich, St. Louis, MO). […] Bands were detected using MyECL Imager (Thermo Scientific, […]

BTK [2] = biological target: T1, BTK; assay: Mechanism validation: pretreatment with ibrutinib, thalidomide-OH or bortezomib before PROTAC in Mino cells; format: cell-based; set-up: endogenous in cells; host or cells: Mino (ATCC CRL-3000), Ramos (ATCC CRL-1596), K562 (NCI-60); conditions: 2 h pretreatment, then PROTAC 24 h

effective cellular concentration relative to IR-2 (Ramos cells) [times]	effective cellular concentration relative to RC-2 (Ramos cells) [times]	BTK degradation after thalidomide-OH pretreatment (BTK [2])	SMILES	Effective cellular concentration (Ramos cells)	BTK degradation level (BTK [1])
			Nc1ncnc2c1c(-c1ccc(Oc3ccccc3)cc1)nn2C1CCCN(C(=O)C=CCCCCOCCOCCOCCOCCOc2cccc3c2C(=O)N(C2CCC(=O)NC2=O)C3=O)C1 (centres unmarked) [IR-2]	4.1 ± 0.7 pg compound / µg total protein	higher degradation levels than RC-2 and RC-3
~2	~10	only slightly hindered by thalidomide	Nc1ncnc2c1c(-c1ccc(Oc3ccccc3)cc1)nn2C1CCCN(C(=O)CCCCCCOCCOCCOCCOCCOc2cccc3c2C(=O)N(C2CCC(=O)NC2=O)C3=O)C1 (centres unmarked) [NC-1]	8.6 ± 2.6 pg compound / µg total protein	higher degradation levels than RC-2 and RC-3
			N#CC(=CCCCCOCCOCCOCCOCCOc1cccc2c1C(=O)N(C1CCC(=O)NC1=O)C2=O)C(=O)N1CCCC(n2nc(-c3ccc(Oc4ccccc4)cc3)c3c(N)ncnc32)C1 (centres unmarked) [RC-2]	0.93 ± 0.06 pg compound / µg total protein	
~2	~10		CC(C)(C=C(C#N)C(=O)N1CCCC(n2nc(-c3ccc(Oc4ccccc4)cc3)c3c(N)ncnc32)C1)CCCOCCOCCOCCOCCOc1cccc2c1C(=O)N(C1CCC(=O)NC1=O)C2=O (centres unmarked) [RC-3]	10.7 ± 3.1 pg compound / µg total protein	
